Columns and labels:
[1] = tested on: isolated cardiac fibroblasts; type: cell-based, rat; settings: for Effect on MBG stimulation of collagen synthesis (procollagen expression): MBG 10 nM 24 h, PP2 1 μmol/L, herbimycin 1 μmol/L, AG1478 250 nM, N-acetyl cysteine 2.5 mmol/L from 2 hours before
Protocol: (§1) Preparation of adult rat cardiac fibroblasts was performed as described previously by Brilla et al. with modifications.
Western blot analysis was performed on protein isolated from tissue homogenates, cell culture whole cell lysates, or nuclear extracts as described previously.
(§2) Representative Western blot for procollagen and quantitative densitometric data obtained in response to different doses of (a) MBG (all N=10), (b) MBG 10 nM contrasted with different doses of ouabain (0.1 to 100 nM) and digoxin (10 nM; all N=8). c, ouabain sensitive Rb uptake as a function of MBG and ouabain concentration (N=4 at each concentration for both MBG and ouabain; data expressed as fraction of control). d, relative proline incorporation in the supernatant and matrix, both will and without collagenase digestion (total). Each group (controls and different doses of MBG) contains N=7 replicants. The difference between the total and after collagenase digestion is reported as collagen. The matrix is the sample that was obtained after removing supernatant and scraping the culture dish. e, mRNA for collagen 1 in MBG-treated (10 nM; N=8) or control (N=8) fibroblasts. f, procollagen stability after cycloheximide treatment. Time 0 is 1 hour after incubation with cycloheximide (20 μg/mL). […] Least-square regression line fit to control (CTL) and MBG data. Bars on quantitative graphs represent the mean.+−.SEM. *P<0.05 and **P<0.01 vs control.
(§3) The PP2, herbimycin AG1478, and N-acetyl cysteine were administered from 2 hours before the addition of MBG and continued throughout the 24 hours of MBG incubation (total of 26 hours). Each bar represents the mean.+−.SEM of n=8 experiments. b, effects of PP2 (1 μmol/L) and N-acetyle cysteine (2.5 mmol/L) on MBG (10 nM)-stimulated proline incorporation into collagen. Again, the PP2 an N-acetyl cysteine were added 2 hours before exposure to MBG. Each bar represents the mean.+−.SEM of N=5 experiments. c, effects of MBG 10 nM on procollagen content in SYF and SYF+ cells. Representative Western blots are shown above quantitative data. SYF blots loaded with 15 μg of protein and SYF+blots loaded with 10 μg of protein. Each bar represents the mean.+−SEM of N-6 determinations In each group. **P<01.10 vs. control.
(§4) The effect of 24 hours of MBG (1 and 10 nM) on TGF-β, Smad 2/3, Smad 4, and pSmad 2/3 expression determined by Western blot. b and c, effects of 24 hours of MBG (10 nM), TGFβ(5 ng/mL), and the TGF-β receptor antagonist SB431542 ([…] on procollagen-1 expression (Western blot) and radiolabeled proline incorporation, respectively also were carried out. SB431542 was added 2 hours before exposure to either TGFβ or MBG (total of 26-hour exposure). Each bar represents the mean.+−.SEM of 6 to 8 determinations. *P<0.05, **P<0.01 vs. control.

[2] = tested on: isolated cardiac fibroblasts; assay: Radiolabeled proline incorporation into collagen (collagen synthesis) in cardiac fibroblasts; type: cell-based, rat; settings: for Effect on MBG-stimulated proline incorporation into collagen: MBG 10 nM, PP2 1 μmol/L, N-acetyl cysteine 2.5 mmol/L added 2 hours before
Protocol: as §1
Collagen synthesis rates were determined by the method of Nishida et al. with modification.
(§5) To further examine the molecular basis of this cardiac fibrosis, isolated cardiac fibroblasts were subjected to increase doses of MBG (10^−10, 10^−9, and 10^−8 M). […] Using collagenase digestion, we observed that the vast majority of the proline incorporation was into collagen. Using standardized RT-PCR, we observed a doubling of mRNA for collagen-1 at 24 hours in response to 10 nM of MBG.
as §2
as §3, with “The effects of PP2 (1 μmol/L), herbimycin (1 μmol/L), AG1478 (250 nM), and N-acetyl cysteine (2.5 mmol/L) on MBG (10 nM) stimulation of procollagen expression also were found. The” for “The”
as §4

[3] = tested on: Milan hypertensive rats; settings: cited from earlier work
[4] = tested on: fibroblast cell line; assay: Procollagen expression in immortalized fibroblast cell line (Western blot); type: cell-based
Description: We next examined whether skin fibroblasts lines had similar response. This was done with dermal fibroblasts kindly provided by Dr. Bashar Kahaleh. […] The magnitude of this response is illustrated by comparison to maximal doses of TGFβ, the “classic” stimulus for fibrosis (see below). In addition, we observed that an immortalized fibroblast line responded similarly to MBG, ouabain and digoxin.
Response of dermal fibroblasts to MBG as compared with TGF beta. Note that increase in collagen expression in MBG is approximately 10 fold with 5 or 10 nM MBG.

[5] = cited from earlier work
[6] = tested on: SYF+ cells; assay: Procollagen expression in SYF+ cells; type: cell-based; settings: MBG 10 nM
Description: (§6) To examine whether cardiotronic steroids induced collagen synthesis by signaling through the Na/K-ATPase, we performed the following studies. First, we used pharmacological antagonism at several steps in the Na/K-ATPase cascade. Specifically, we used pharmacological antagonism of Src activation with PP2, nonspecific tyrosine kinase inhibition with herbimycin, inhibition of EGFR transactivation with AG1478, and nonspecific antioxidant administration with N-acetyle cysteine. […] Next we performed studies in the SYF and SYF+ cells (details available in the online supplement).
as §3, with “The effects of PP2 (1 μmol/L), herbimycin (1 μmol/L), AG1478 (250 nM), and N-acetyl cysteine (2.5 mmol/L) on MBG (10 nM) stimulation of procollagen expression also were found. The” for “The”, “SYF blots loaded with 15 μg of protein and SYF+blots loaded with 10 μg of protein. Each bar represents the mean.+−SEM of N-6 determinations In each group. **P<01.10 vs. control.” left out

[7] = molecular target: T1, Na/K-ATPase (Rattus norvegicus, UniProt P06685); assay: Ouabain sensitive 86Rb uptake in cardiac fibroblasts; type: cell-based
T1 construct: In vitro studies were then pursued with cultured isolated cardiac fibroblasts; endogenous in cells; host or cells: primary isolated cardiac fibroblasts in culture
Protocol: as §5
Representative Western blot for procollagen and quantitative densitometric data obtained in response to different doses of (a) MBG (all N=10), (b) MBG 10 nM contrasted with different doses of ouabain (0.1 to 100 nM) and digoxin (10 nM; all N=8). c, ouabain sensitive Rb uptake as a function of MBG and ouabain concentration (N=4 at each concentration for both MBG and ouabain; data expressed as fraction of control). d, relative proline incorporation in the supernatant and matrix, both will and without collagenase digestion (total). Each group (controls and different doses of MBG) contains N=7 replicants. The difference between the total and after collagenase digestion is reported as collagen. […] Bars on quantitative graphs represent the mean.+−.SEM. *P<0.05 and **P<0.01 vs control.

[8] = tested on: SYF cells; assay: Procollagen expression in SYF cells; type: cell-based; settings: MBG 10 nM
Description: as §6
as §3, with “The effects of PP2 (1 μmol/L), herbimycin (1 μmol/L), AG1478 (250 nM), and N-acetyl cysteine (2.5 mmol/L) on MBG (10 nM) stimulation of procollagen expression also were found. The” for “The”, “SYF blots loaded with 15 μg of protein and SYF+blots loaded with 10 μg of protein. Each bar represents the mean.+−SEM of N-6 determinations In each group. **P<01.10 vs. control.” left out

[9] = tested on: fibroblasts; settings: 48 hours, 15 ng/mL; cited from earlier work

## COc1cc2ncnc(Nc3cccc(Cl)c3)c2cc1OC [AG1478]
[1]
  Effect on MBG stimulation of collagen synthesis (procollagen expression): prevented MBG stimulation of collagen synthesis

## CC(=O)N[C@@H](CS)C(=O)O [N-acetyl cysteine]
[1]
  Effect on MBG stimulation of collagen synthesis (procollagen expression): prevented MBG stimulation of collagen synthesis
[2]
  Effect on MBG-stimulated proline incorporation into collagen: prevented increases in proline incorporation into collagen

## CC(C)(C)n1nc(-c2ccc(Cl)cc2)c2c(N)ncnc21 [PP2]
[1]
  Effect on MBG stimulation of collagen synthesis (procollagen expression): prevented MBG stimulation of collagen synthesis
[2]
  Effect on MBG-stimulated proline incorporation into collagen: prevented increases in proline incorporation into collagen

## C[C@]12CC[C@H](O)C[C@H]1CC[C@@H]1[C@@H]2CC[C@]2(C)[C@@](O)(c3ccoc3)CC[C@]12O [PST 2238]
[3]
  Effect on hypertension and cardiac hypertrophy: ameliorates hypertension, as well as cardiac hypertrophy

## NC(=O)c1ccc(-c2nc(-c3ccc4c(c3)OCO4)c(-c3ccccn3)[nH]2)cc1 [SB431542]
[1]; 100-μmol/L
  Procollagen expression relative to baseline (Western blot): did not educe procollagen expression below baseline
[1]; SB431542 added 2 hours before
  Effect on TGF-β and MBG (10 nM) stimulation of collagen expression: completely blocked
[2]; 100-μmol/L
  Radiolabeled proline incorporation relative to control cells: did decrease radiolabeled proline incorporation below that seen with control cells
[2]; SB431542 added 2 hours before
  Effect on TGF-β and MBG (10 nM) stimulation of radiolabeled proline incorporation: completely blocked

## C[C@H]1O[C@@H](O[C@H]2[C@@H](O)C[C@H](O[C@H]3[C@@H](O)C[C@H](O[C@H]4CC[C@@]5(C)[C@H](CC[C@@H]6[C@@H]5C[C@@H](O)[C@]5(C)[C@@H](C7=CC(=O)OC7)CC[C@]65O)C4)O[C@@H]3C)O[C@@H]2C)C[C@H](O)[C@@H]1O [digoxin]
[4]
  Effect on fibroblast cell line expression of procollagen: Comparable effect
[5]; human, in vivo
  Free fraction of plasma digoxin: 70% to 80%
[5]; patients treated with digoxin
  Total digoxin levels typically maintained in patients: < 2 ng/mL

## CO[C@H]1[C@@H](OC)C[C@H](C)[C@@H](OC)C2=CC(=O)C=C(NC(=O)/C(C)=C/C=C\[C@H](OC)[C@@H](OC(N)=O)/C(C)=C/[C@@H]1C)C2=O [herbimycin]
[1]
  Effect on MBG stimulation of collagen synthesis (procollagen expression): prevented MBG stimulation of collagen synthesis

## C[C@@H]1O[C@@H](O[C@H]2C[C@@H](O)[C@]3(CO)[C@H]4[C@H](O)C[C@]5(C)[C@@H](C6=CC(=O)OC6)CC[C@]5(O)[C@@H]4CC[C@]3(O)C2)[C@H](O)[C@H](O)[C@H]1O [ouabain, reference compound]
[4]
  Effect on fibroblast cell line expression of procollagen: Comparable effect
[6]
  Upregulation of procollagen expression in SYF+ cells: very similar way as the primary cardiac fibroblast cultures
[7]
  Threshold for inducing collagen expression relative to doses with detectable effects on 86Rb uptake: log units below
[8]
  Response of procollagen expression in SYF cells: essentially no response

## TGF-β
[1]; TGF-β 5 ng/mL and MBG 10 nM
  Synergism with MBG on procollagen expression: did not note any synergism
[9]
  Maximal increase in collagen production: 2 times

Source: patent US9072751B2, “Na/K-ATPase ligand” (priority 2006, dated 2015)
